From patent US5661138A, “(o-Acyl-p-N-acylamino-phenyl)-O-phosphoethanolamines” (Clarion Pharmaceutical, Inc., priority 1996, dated 1997)

How the values were obtained:
[1] = tested on: PMA-induced inflammation in mouse ears; assay: In Vivo Assay--Mouse Ear model, PMA-induced inflammation; set-up: species or system mouse (male CD-1); settings: concentration tested 5%, topical to ear, 6 hours; FIG. 1
Description: A common in vivo model for the evaluation of anti-inflammatory agents is PMA-induced inflammation in mouse ears. This method is described in "Pharmacological Methods in the Control of Inflammation," Joseph Y. Chang and Alan J. Lewis (eds), Alan R. Liss, Inc., New York, pp 221-223 (1989). In this assay, edema, which is a characteristic of inflammation, is quantified by determining ear thickness or ear weight approximately 6 hours after applying PMA to the ear.
1. Mice: Male CD-1, 21-24 g (Product Number 3002) obtainable from Harlan Sprague Dawley, Indianapolis, Ind., USA.
a. Prepare 0.01% (w/v) PMA in a mixture of equal volumes of acetone and ethanol;
b. Prepare 0.01% (w/v) PMA and 5% (w/v) test compound in a mixture of equal volumes of acetone and ethanol;
c. Divide 12 mice into 4 groups of 3 mice each;
d. Treat the first group of mice by applying 20 μL of a mixture of equal volumes of acetone and ethanol (vehicle) to the left ear using a micropipetter;
e. Treat the second group of mice by applying 20 μL of PMA solution to the left ear;
f. Treat the other two groups of mice by applying 20 μL of PMA/test compound solution to the left ear;
g. Wait 6 hours and euthanize the mice in a CO2 chamber;
h. Cut the ears and punch out circles of 6-mm diameter; and
i. Measure the weight of three appropriate ear punches in the same group together.

[2] = tested on: carrageenan-induced paw edema in the rat; assay: In Vivo Assay--Rat Carrageenan-Induced Paw Edema; set-up: species or system rat (male Sprague-Dawley); settings: intraperitoneal, 6 hours; FIG. 3
Text: The model, which provides a tool for investigating the effect of compounds on paw intimation, is described in the following reference: Bartlett, R. R., et al. (1993), "Effects of leflunomide on immune responses and models of inflammation," Springer Semin Immunopathol 14:381-394. It essentially consists of the following:
1. Rats: Male Sprague-Dawley, approximately 165 g obtainable from Harlan Sprague Dawley, Indianapolis, Ind., USA;
a. Measure the volume of the left hind paw by strain gauge/fluid immersion;
b. Inject 100 μL of 1% carrageenan in saline intradermally into the left hind foot pad;
c. Inject vehicles or test compounds dissolved in either saline (CPR-2015) or 50% saline and 50% ethanol (indomethacin, dexamethasone, and CPR-2014) intraperitoneally, placing 3-5 rats in each treatment group;
d. Six hours later, measure the volume of the left hind paw by strain gauge/fluid immersion;
e. Calculate average percent increase in paw volume for each treatment group.

[3] = tested on: TNB-induced inflammation in rat colon; assay: In Vivo Assay--Rat Ulcerative Colitis Model (TNB-induced); set-up: species or system rat (male Sprague-Dawley); settings: 150 mg/kg, rectal, once a day for 5 days; FIG. 2
Text: The model described in this section provides a tool for investigating the effect of compounds in colonic intimation. This model and the experimental methods are described in the following reference: Luck, Michael S. and Bass, Paul, (1993), "Effect of Epidermal Growth Factor on Experimental Colitis in the Rat," J. Pharmacol. Exp. Therap. 264:984-990. In this assay, inflammatory lesions in the rat colon are induced by the intracolonic administration of 2,4,6-trinitrobenzenesulfonic acid.
1. Rats: Male Sprague-Dawley, 185-195 g obtainable from Harlan Sprague Dawley, Indianapolis, Ind., USA;
a. Prepare 100 mg/mL 5-aminosalicylic acid (5-ASA), 50 mg/mL CPR-2015, and 150 mg/mL CPR-2015 in saline;
b. Divide 34 rats into 4 groups of 8 rats each and one group of two rats;
c. Leave the group with two rats completely untreated;
d. Treat the other four groups of rats with 200 μl of Saline, 500 μl of 100 mg/mL 5-ASA, 200 μl of 50 mg/mL CPR-2015, or 200 μl of 150 mg/mL CPR-2015. These treatments are administered rectally with an 8-cm catheter;
e. After one hour, treat the above four groups of rats rectally with 500 μl of 100 mg/mL 2,4,6-trinitrobenzenesulfonic acid (TNB) in 30% ethanol and 70% saline;
f. Repeat the treatments described in paragraph 2(d) once a day for a total of 5 days;
g. On the 6th day, euthanize the rates in a CO2 chamber; and
h. […]

[4] = tested on: Mouse Macrophage RAW 264.7; assay: In Vitro Chemiluminescence Assay: inhibition of respiratory burst in PMA-stimulated mouse macrophage RAW 264.7; format: cell-based
Text: The cells are capable of phagocytosis and undergo an oxidative burst in response to appropriate signals. Agents that inhibit the activation of these cell in vitro are therefore inhibitors of critical steps in inflammatory processes.
Activation of macrophages and other phagocytic cell types initiates a cascade of actions that include increased oxygen consumption (respiratory burst) and production of oxygen radicals. These events can be measured m a variety of ways, including chemiluminescence based on the addition of luminol (see M. A. Trush et al, (1978), The generation of chemiluminescence by phagocytic cells, Methods in Enzymology 56:462-494). Because chemiluminescence is induced by the increased production of oxygen radicals that are thought to be important in intracellular killing of bacteria, chemiluminescence has long been used as an index of phagocytic cell activity. In addition, oxygen radical production is associated with inflammatory responses and may have adverse consequences in non-infectiousinflammation. For this reason, macrophage activation is of critical importance in studies of the inflammatory process. Agents that reduce macrophage activation are likely to have utility as anti-inflammatory agents.
1. Cell line: Raw 264.7 (ATCC TIB-71, attachment dependent).
2. Culture medium: Dulbecco's Modified Eagle's Medium (DMEM) with 10% Fetal Bovine Serum (FBS).
3. Standard protocol for culturing cell lines: in T-75 or T-150 flasks; 37° C.; 95% air, 5% CO2; 100% humidity;
a. Cell line is passaged when approximately 80% confluent; with trypsin (1 mg/mL) and ethylenediaminetetraacetic acid (EDTA) (1 mM in Ca-Mg free Hank's balanced salt solution); at a 1:4 to 1:5 split;
b. All procedures are performed aseptically in a class II biological safety cabinet using standard BL-2 containment procedures. In order to prevent genetic drift in stock cell lines, fresh cultures are prepared at approximately monthly intervals with cells thawed from liquid nitrogen storage.
a. After cell passage, count cells with a hemacytometer;
b. Adjust cell concentration to approximately 1,000,000 cells per mL;
c. Suspend cells in DMEM lacking phenol red and without FBS;
d. Pipette 1 mL of cell suspension into a standard luminometer cuvette (12×75 mm), commercially obtainable from Analytical Luminescence Laboratories, San Diego, Calif., USA;
e. Add luminol to final concentration of 0.2 mM;
f. Add test compound dissolved in phosphate buffered saline (PBS) for final concentration levels ranging from 0 to 10 μM;
g. Add 100 nanograms of phorbol myristate acetate (PMA): and
h. Wait 1 minute and read photo counts (i.e., luminescence) on a Monolight 2010 luminometer available from Analytical Luminescence Laboratories, San Diego.
Background--no test compound present; no PMA present;
Control--no test compound present;
Calculate: [formula] where L is luminescence. 6.

SMILES | inhibition of PMA-induced inflammation in mouse ear [1] | inhibition of carrageenan-induced edema in rat paw [2] | inhibition of TNB-induced inflammation in rat colon [3] | inhibition at 0.1 µM ([4]; Mus musculus, RAW264.7, Concentration 0.1 µM, PMA-stimulated RAW 264.7, luminol chemiluminescence) | inhibition at 0.3 µM ([4]; Mus musculus, RAW264.7, Concentration 0.3 µM, PMA-stimulated RAW 264.7, luminol chemiluminescence) | inhibition at 1 µM ([4]; Mus musculus, RAW264.7, Concentration 1 µM, PMA-stimulated RAW 264.7, luminol chemiluminescence) | inhibition at 3 µM ([4]; Mus musculus, RAW264.7, Concentration 3 µM, PMA-stimulated RAW 264.7, luminol chemiluminescence) | inhibition at 10 µM ([4]; Mus musculus, RAW264.7, Concentration 10 µM, PMA-stimulated RAW 264.7, luminol chemiluminescence) | inhibition of PMA-induced macrophage activation ([4]; at concentrations above 0.3 μM)
CCCCCCCCCCCCCCCC(=O)Nc1ccc(O)c(C(C)=O)c1 [CPR-2014, 1-(5-hexadecanamido-2-hydroxy-phenyl)-ethanone] | partially inhibited | marked inhibition | – | – | – | – | – | – | –
CCCCCCCCCCCCCCCC(=O)Nc1ccc(OP(=O)([O-])OCC[N+](C)(C)C)c(C(C)=O)c1 [CPR-2015, (o-acetyl-p-N-hexadecanamido-phenyl)-O-phosphocholine] | completely inhibited | marked inhibition | marked inhibition | 13% | 63% | 94% | 97% | 99% | marked inhibition
